From patent US9156845B2, “4-(substituted amino)-7H-pyrrolo[2,3-d] pyrimidines as LRRK2 inhibitors” (Pfizer Inc., priority 2012, dated 2015)
Like-named read-outs stand apart in the source and are kept apart here.

Columns and labels:
Assay in all cases: ActivX kinase probe assay (human PBMC)
Type in all cases: binding
[1] = target: FYN (Homo sapiens (Human), UniProt P06241); conditions: read-out: percent inhibition
[2] = target: NEK9 (Homo sapiens (Human), UniProt Q8TD19); conditions: read-out: percent inhibition
[3] = target: OSR1 (Homo sapiens (Human), UniProt O95747); conditions: read-out: percent inhibition
[4] = target: p70S6Kb (Homo sapiens (Human), UniProt Q9UBS0); conditions: read-out: percent inhibition
[5] = target: SYK (Homo sapiens (Human), UniProt P43405); conditions: read-out: percent inhibition
[6] = target: LKB1 (Homo sapiens (Human), UniProt Q15831); conditions: read-out: percent inhibition
[7] = system: MAP2K1, MAP2K2
[8] = target: IRAK4 (Homo sapiens (Human), UniProt Q9NWZ3); conditions: read-out: percent inhibition
[9] = target: TLK2 (Homo sapiens (Human), UniProt Q86UE8); conditions: read-out: percent inhibition
[10] = target: MAP3K4 (Homo sapiens (Human), UniProt Q9Y6R4); conditions: read-out: percent inhibition
[11] = target: smMLCK (Homo sapiens (Human), UniProt Q15746); conditions: read-out: percent inhibition
[12] = target: PIP5K3 (Homo sapiens (Human), UniProt Q9Y2I7); conditions: read-out: percent inhibition
[13] = target: ZAK (Homo sapiens (Human), UniProt Q9NYL2); conditions: read-out: percent inhibition
[14] = target: TBK1 (Homo sapiens (Human), UniProt Q9UHD2); conditions: read-out: percent inhibition
[15] = system: p70S6K, p70S6Kb
[16] = target: SGK3 (Homo sapiens (Human), UniProt Q96BR1); conditions: read-out: percent inhibition
[17] = target: p38a (Homo sapiens (Human), UniProt Q16539); conditions: read-out: percent inhibition
[18] = target: PYK2 (Homo sapiens (Human), UniProt Q14289); conditions: read-out: percent inhibition
[19] = target: p70S6K (Homo sapiens (Human), UniProt P23443); conditions: read-out: percent inhibition
[20] = target: FER (Homo sapiens (Human), UniProt P16591); conditions: read-out: percent inhibition
[21] = target: PIP4K2C (Homo sapiens (Human), UniProt Q8TBX8)
[22] = target: SRC (Homo sapiens (Human), UniProt P12931); conditions: read-out: percent inhibition
[23] = target: LATS2 (Homo sapiens (Human), UniProt Q9NRM7); conditions: read-out: percent inhibition
[24] = target: PAN3 (Homo sapiens (Human), UniProt Q58A45); conditions: read-out: percent inhibition
[25] = system: ABL, ARG
[26] = target: LRRK2 (Homo sapiens (Human), UniProt Q5S007); conditions: read-out: percent inhibition
[27] = target: GCK (Homo sapiens (Human), UniProt Q12851); conditions: read-out: percent inhibition
[28] = target: IRAK3 (Homo sapiens (Human), UniProt Q9Y616); conditions: read-out: percent inhibition
[29] = system: Wnk1, Wnk2, Wnk3
[30] = system: JNK1, JNK2, JNK3
[31] = system: CDK11, CDK8
[32] = target: FAK (Homo sapiens (Human), UniProt Q05397); conditions: read-out: percent inhibition
[33] = target: MAP2K4 (Homo sapiens (Human), UniProt P45985); conditions: read-out: percent inhibition
[34] = target: AMPKa1 (Homo sapiens (Human), UniProt Q13131); conditions: read-out: percent inhibition
[35] = read-out: percent inhibition, PIP4K2C (first line of two)
[36] = read-out: percent inhibition, PIP4K2C (second line of two)

PIP4K2C, sequence (Q8TBX8 whole entry): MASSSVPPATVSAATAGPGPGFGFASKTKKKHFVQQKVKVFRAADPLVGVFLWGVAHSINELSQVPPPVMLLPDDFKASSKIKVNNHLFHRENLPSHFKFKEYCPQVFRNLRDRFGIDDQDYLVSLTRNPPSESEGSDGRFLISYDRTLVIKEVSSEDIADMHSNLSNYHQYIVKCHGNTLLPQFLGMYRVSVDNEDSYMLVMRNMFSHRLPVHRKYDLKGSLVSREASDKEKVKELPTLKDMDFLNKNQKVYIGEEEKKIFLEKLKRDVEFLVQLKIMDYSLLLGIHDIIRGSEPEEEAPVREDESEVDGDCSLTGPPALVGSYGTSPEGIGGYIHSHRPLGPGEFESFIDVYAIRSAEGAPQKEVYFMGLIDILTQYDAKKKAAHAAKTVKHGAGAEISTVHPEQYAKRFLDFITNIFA
PYK2, sequence (Q14289 whole entry): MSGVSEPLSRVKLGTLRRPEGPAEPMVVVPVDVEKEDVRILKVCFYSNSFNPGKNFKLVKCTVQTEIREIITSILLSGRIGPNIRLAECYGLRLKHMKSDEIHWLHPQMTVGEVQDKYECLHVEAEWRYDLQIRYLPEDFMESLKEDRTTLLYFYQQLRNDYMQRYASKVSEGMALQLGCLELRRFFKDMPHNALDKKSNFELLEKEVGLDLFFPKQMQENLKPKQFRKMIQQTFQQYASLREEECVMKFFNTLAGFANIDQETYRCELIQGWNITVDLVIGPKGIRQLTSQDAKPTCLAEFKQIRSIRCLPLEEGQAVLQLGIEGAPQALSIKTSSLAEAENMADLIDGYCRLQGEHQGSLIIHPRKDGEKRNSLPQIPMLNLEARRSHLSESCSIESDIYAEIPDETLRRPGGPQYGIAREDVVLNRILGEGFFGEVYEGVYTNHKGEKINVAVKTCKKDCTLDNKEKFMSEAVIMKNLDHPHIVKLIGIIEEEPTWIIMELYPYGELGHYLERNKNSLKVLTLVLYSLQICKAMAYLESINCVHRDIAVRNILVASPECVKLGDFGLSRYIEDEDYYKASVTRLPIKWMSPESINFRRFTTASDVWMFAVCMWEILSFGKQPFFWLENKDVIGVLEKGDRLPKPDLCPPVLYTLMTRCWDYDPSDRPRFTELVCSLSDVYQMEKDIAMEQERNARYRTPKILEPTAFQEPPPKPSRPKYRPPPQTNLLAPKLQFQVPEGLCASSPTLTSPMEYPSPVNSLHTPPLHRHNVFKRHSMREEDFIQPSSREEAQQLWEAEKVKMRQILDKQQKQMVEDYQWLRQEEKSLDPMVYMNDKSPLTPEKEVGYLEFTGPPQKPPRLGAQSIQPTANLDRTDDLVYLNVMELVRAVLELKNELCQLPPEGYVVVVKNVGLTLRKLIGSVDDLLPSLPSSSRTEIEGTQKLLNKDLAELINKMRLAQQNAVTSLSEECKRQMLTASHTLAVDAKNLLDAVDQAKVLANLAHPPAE
PIP5K3, sequence (Q9Y2I7 whole entry): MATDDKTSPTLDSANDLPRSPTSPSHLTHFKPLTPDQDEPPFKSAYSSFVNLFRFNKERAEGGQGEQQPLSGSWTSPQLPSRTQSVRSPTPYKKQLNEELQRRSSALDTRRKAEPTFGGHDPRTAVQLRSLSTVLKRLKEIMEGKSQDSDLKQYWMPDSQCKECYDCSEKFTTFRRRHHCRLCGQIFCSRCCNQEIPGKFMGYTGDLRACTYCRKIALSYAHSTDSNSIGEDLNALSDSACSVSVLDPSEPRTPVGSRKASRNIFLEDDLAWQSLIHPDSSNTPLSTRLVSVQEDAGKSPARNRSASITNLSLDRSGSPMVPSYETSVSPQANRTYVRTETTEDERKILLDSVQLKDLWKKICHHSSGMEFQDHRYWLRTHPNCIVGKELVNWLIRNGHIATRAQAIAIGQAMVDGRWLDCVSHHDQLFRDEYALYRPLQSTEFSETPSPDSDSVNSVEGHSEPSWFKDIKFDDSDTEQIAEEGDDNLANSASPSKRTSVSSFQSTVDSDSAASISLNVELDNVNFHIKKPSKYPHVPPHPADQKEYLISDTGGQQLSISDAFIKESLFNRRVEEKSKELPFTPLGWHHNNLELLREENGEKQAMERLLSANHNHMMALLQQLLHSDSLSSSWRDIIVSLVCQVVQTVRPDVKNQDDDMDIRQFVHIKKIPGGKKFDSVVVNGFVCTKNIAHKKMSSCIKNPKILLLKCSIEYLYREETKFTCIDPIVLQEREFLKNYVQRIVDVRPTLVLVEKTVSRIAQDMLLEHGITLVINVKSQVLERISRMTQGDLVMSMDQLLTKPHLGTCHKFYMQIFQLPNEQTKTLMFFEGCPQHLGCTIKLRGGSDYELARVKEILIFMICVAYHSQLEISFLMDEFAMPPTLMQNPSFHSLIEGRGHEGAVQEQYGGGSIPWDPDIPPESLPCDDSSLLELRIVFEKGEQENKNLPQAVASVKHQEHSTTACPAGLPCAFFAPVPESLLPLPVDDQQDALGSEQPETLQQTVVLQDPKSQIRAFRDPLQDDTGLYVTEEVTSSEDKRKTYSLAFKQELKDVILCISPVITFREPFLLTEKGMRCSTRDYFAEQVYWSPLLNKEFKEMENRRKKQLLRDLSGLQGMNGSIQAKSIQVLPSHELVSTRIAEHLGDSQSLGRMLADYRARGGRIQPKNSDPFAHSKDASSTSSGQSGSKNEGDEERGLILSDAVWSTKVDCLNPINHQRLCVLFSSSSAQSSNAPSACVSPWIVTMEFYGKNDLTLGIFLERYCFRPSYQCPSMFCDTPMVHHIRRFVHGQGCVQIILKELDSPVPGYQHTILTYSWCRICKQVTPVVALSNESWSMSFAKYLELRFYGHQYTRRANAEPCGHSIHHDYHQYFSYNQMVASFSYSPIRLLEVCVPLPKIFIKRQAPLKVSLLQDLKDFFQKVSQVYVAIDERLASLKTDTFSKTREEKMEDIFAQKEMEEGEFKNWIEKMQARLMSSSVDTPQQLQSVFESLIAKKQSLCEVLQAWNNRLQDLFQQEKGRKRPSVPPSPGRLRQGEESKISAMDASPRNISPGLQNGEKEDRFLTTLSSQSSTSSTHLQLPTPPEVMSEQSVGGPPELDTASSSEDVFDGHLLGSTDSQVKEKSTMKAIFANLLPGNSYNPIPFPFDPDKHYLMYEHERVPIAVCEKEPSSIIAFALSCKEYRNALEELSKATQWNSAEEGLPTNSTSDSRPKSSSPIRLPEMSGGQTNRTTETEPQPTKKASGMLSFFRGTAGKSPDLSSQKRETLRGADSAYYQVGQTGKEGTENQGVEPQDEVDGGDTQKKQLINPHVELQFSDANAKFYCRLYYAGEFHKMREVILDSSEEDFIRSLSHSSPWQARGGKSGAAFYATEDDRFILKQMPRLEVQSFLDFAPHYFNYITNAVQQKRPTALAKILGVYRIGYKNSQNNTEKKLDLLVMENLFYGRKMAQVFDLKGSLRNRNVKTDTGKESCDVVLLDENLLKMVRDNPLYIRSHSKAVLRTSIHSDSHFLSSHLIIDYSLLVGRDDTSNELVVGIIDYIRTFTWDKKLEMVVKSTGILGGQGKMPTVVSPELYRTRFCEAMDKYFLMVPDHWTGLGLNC
MAP2K4, sequence (P45985 whole entry): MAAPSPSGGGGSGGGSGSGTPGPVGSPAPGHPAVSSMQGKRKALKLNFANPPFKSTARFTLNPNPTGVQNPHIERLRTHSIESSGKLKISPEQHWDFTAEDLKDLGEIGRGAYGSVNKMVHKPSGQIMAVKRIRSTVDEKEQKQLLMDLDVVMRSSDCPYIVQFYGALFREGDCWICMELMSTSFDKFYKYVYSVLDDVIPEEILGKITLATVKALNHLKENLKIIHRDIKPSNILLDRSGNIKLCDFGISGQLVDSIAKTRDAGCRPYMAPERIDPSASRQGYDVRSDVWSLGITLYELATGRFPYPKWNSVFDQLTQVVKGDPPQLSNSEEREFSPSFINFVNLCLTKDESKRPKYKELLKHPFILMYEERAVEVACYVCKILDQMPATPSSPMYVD
TBK1, sequence (Q9UHD2 whole entry): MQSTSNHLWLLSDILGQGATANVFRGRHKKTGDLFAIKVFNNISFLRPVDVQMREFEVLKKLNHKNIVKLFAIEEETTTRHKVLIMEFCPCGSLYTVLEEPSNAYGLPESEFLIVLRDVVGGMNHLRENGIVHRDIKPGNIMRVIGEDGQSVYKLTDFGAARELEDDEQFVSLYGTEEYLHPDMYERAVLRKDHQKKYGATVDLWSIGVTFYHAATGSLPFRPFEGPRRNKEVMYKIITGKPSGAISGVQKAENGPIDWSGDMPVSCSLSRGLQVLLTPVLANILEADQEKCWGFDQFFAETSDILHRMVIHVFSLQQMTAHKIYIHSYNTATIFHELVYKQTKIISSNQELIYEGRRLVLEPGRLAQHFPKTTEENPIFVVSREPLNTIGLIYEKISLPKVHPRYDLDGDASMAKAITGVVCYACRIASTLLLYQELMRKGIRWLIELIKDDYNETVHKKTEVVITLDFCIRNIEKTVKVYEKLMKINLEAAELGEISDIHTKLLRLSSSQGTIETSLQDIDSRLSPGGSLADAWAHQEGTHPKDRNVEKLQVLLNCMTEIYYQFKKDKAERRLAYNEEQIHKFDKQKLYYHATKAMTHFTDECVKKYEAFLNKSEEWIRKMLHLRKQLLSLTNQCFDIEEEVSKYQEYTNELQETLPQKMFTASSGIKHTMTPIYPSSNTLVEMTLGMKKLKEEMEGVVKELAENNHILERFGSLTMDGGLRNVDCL
p38a, sequence (Q16539 whole entry): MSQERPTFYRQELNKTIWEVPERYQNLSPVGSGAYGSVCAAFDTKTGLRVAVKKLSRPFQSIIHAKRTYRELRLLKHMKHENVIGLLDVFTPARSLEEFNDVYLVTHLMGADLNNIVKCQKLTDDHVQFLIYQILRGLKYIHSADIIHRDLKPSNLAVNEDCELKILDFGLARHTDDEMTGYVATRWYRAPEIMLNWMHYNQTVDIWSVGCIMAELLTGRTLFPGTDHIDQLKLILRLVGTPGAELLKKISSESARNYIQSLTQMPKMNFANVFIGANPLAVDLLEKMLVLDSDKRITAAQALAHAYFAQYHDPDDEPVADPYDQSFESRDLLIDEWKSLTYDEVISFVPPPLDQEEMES

Question: Which results are given for `N#Cc1cccc(-c2c[nH]c3ncnc(N4CCOCC4)c23)c1` [Example 4, 3-[4-(Morpholin-4-yl)-7H-pyrrolo[2,3-d]pyrimidin-5-yl]benzonitrile]?
Answer: inhibition at 0.1 µM [1]: -1.9%; inhibition at 1 µM [1]: -9.1%; inhibition at 0.1 µM [2]: -7.1%; inhibition at 1 µM [2]: 1%; inhibition at 0.1 µM [3]: -23.1%; inhibition at 1 µM [3]: -55.4%; inhibition at 0.1 µM [4]: 11.4%; inhibition at 1 µM [4]: 18.5%; inhibition at 0.1 µM [5]: -8.3%; inhibition at 1 µM [5]: 7.2%; inhibition at 0.1 µM [6]: 3.5%; inhibition at 1 µM [6]: 16.5%; percent inhibition ([7]; 0.1 μM): −7.1%; percent inhibition ([7]; 1 μM): 6.4%; inhibition at 0.1 µM [8]: -12.8%; inhibition at 1 µM [8]: 10.7%; inhibition at 0.1 µM [9]: -8.4%; inhibition at 1 µM [9]: -9.4%; inhibition at 0.1 µM [10]: 9.7%; inhibition at 1 µM [10]: 29.8%; inhibition at 0.1 µM [11]: -21.6%; inhibition at 1 µM [11]: 16.2%; inhibition at 0.1 µM [12]: -11.2%; inhibition at 1 µM [12]: 21.6%; inhibition at 0.1 µM [13]: -20.5%; inhibition at 1 µM [13]: -42.2%; inhibition at 0.1 µM [14]: 7.3%; inhibition at 1 µM [14]: 16.4%; percent inhibition ([15]; 0.1 μM): −10.5%; percent inhibition ([15]; 1 μM): −9.6%; inhibition at 0.1 µM [16]: -5.5%; inhibition at 1 µM [16]: -0.8%; inhibition at 0.1 µM [17]: -14.6%; inhibition at 1 µM [17]: -1.7%; inhibition at 0.1 µM [18]: -3.9%; inhibition at 1 µM [18]: 2.5%; inhibition at 0.1 µM [19]: -9%; inhibition at 1 µM [19]: 11.1%; inhibition at 0.1 µM [20]: -26.4%; inhibition at 1 µM [20]: 1.6%; inhibition at 0.1 µM [21, 35]: 3.1%; inhibition at 1 µM [21, 35]: 58.4%; inhibition at 0.1 µM [21, 36]: 9.3%; inhibition at 1 µM [21, 36]: 54.3%; inhibition at 0.1 µM [22]: -18.3%; inhibition at 1 µM [22]: -2.2%; inhibition at 0.1 µM [23]: -7.2%; inhibition at 1 µM [23]: 16.2%; inhibition at 0.1 µM [24]: -0.2%; inhibition at 1 µM [24]: 15.1%; percent inhibition ([25]; 0.1 μM): −29.4%; percent inhibition ([25]; 1 μM): −0.9%; inhibition at 0.1 µM ([26]; 0.1 μM): 79.9%; inhibition at 1 µM ([26]; 1 μM): 94.1%; inhibition at 0.1 µM [27]: 3.6%; inhibition at 1 µM [27]: 31.2%; inhibition at 0.1 µM [28]: 29.8%; inhibition at 1 µM [28]: 33.7%; percent inhibition ([29]; 0.1 μM): 1.7%; percent inhibition ([29]; 1 μM): −6%; percent inhibition ([30]; 0.1 μM): −5.3%; percent inhibition ([30]; 1 μM): 5.4%; percent inhibition ([31]; 0.1 μM): 5%; percent inhibition ([31]; 1 μM): 36%; inhibition at 0.1 µM [32]: -8.9%; inhibition at 1 µM [32]: 11.1%; inhibition at 0.1 µM [33]: -20.5%; inhibition at 1 µM [33]: 19.2%; inhibition at 0.1 µM [34]: -2.1%; inhibition at 1 µM [34]: 16.4%
